{"source": "patent US10889812B2", "about": "“Short non-coding protein regulatory RNAs (sprRNAs) and methods of use” (University of Maryland, Baltimore, priority 2014, dated 2021)", "key": {"[1]": {"test_system": "H157 and SKMES-1 cells", "assay": "MTT assay, cell killing by CDDP after Ant-138", "assay_type": "cell-based, human", "conditions": "Ant-138 then CDDP (IC25 dose) six hours later, vs Scr pre-treated", "method": "Cell viability and cell growth curve assay were determined by MTT assay and trypan blue exclusion assay, respectively as described previously (Kirino, Y. & Mourelatos, Z. Mouse Piwi-interacting RNAs are 2′-O-methylated at their 3′ termini Nat Struct Mol Biol. 14, 347-348 (2007)). BrieflySpecifically, MTT (5 mg/ml) was added into cells and incubated at culture condition for 3 hours, removed the medium carefully and dissolved formazan in DMSO, assay was used to assess the surviving cells and OD values were measured using Microplate Reader Manager (Bio Rad) at wavelengths of 570/690 nm. For trypan blue exclusion assay, cells were washed in PBS for three times, and dyed in 0.4% tyrpan blue solution. Unstained viable cells were counted in hemocytometer chamber under microscope. Each experiment was performed three times independently.\n(§1) To determine if the increased piR-L-138 plays a functional role in CDDP treated SCC cells, we used DNA antisense oligos of piR-L-138 (Ant-138) to block piR-L-138 in H157 and SKMES-1 cells. Six hours after Ant-138 treatment, we treated the cells with CDDP (IC25 dose)."}, "[2]": {"test_system": "H157 and SKMES-1 cells", "assay": "Flow cytometry, sub-G1 phase after CDDP", "assay_type": "cell-based, human", "conditions": "Ant-138 then CDDP (IC25 dose) six hours later, vs Scr", "method": "Cell cycle distribution was analyzed by Flow Cytometry (Becton-Dickinson). Cells were synchronized in growth factor-free Keratinocyte-SFM with 2 mM Thymidine (Catalog No. T1895, Sigma-Aldrich) for 24 hrs. Transfection is performed using Lipofectamine™ RNAiMAX (Invitrogen) according to its manual, and the final concentration of annealed oligo RNAs is 400 nM. Four hour after transfection, culture medium was replaced by complete Keratinocyte-SFM supplemented with L-Glutamine, prequalified human recombinant EGF 1-53 and BPE. Cells were harvested at different time points, washed in phosphate-buffer saline (PBS), fixed with ice-cold 70% ethanol, and strained in PI/RNase solution (BD Pharmigen). The samples were analyzed on a FACScan flow cytometer in combination with BD lysis software (Becton-Dickinson).\nas §1"}, "[3]": {"test_system": "SCC cells", "assay": "Annexin V staining assay, CDDP-induced apoptosis", "assay_type": "cell-based, human", "conditions": "pre-treated SCC cells, vs Scr pre-treated", "description": "as §1"}, "[4]": {"test_system": "cleaved PARP", "assay": "Western blot of cleaved PARP in CDDP treated SCC cells", "assay_type": "cell-based, human", "conditions": "pre-treated SCC cells plus CDDP, vs Scr", "description": "(§2) Primary antibodies used were: anti-Moesin (1:1,000, Clone Q480, Catalog No. 3150, Cell Signaling), anti-p-ERM (Clone 41A3, Catalog No. 3149, Cell Signaling), anti-Moesin (Clone 38/Moesin, Catalog No. 610401, BD Transduction Laboratories), anti-p-Moesin (Thr558, Catalog No. 12895, Sanra Cruz), anti-β-actin (1:5,000, Catalog No. A228, Sigma-Aldrich), anti-EBP50 (1:100, Clone 6/EBP50, Catalog No. 61160, BD Transduction Laboratories), anti-F-actin (1:100, Clone NH3, Catalog No. MA1-80729, Thermor Fisher), anti-p-Wee 1 (Se53, 1:1000, Catalog No. sc-130223, Sanra Cruz), anti-Wee 1 (C-20, 1:1000, Catalog No. sc-325, Sanra Cruz), anti-p-Cdc2 (Tyr15, 1:1000, Catalog No. 9111, Cell Signaling), anti-p-Cdk (Thr14/Tyr15-R, 1:1000, Catalog No. sc-28435-R, Sanra Cruz), anti-Cdc2 p34 (H-297, 1:1000, Catalog No. sc-747, Sanra Cruz), anti-p-Cdc25C (Ser198, 1:1000, Catalog No. 9529, Cell Signaling), anti-CDK2 (78B2, 1:1000, Catalog No. 2546, Cell Signaling), anti-p-Histone H2AX (Ser139, 20E3, :1000, Catalog No. 9718, Cell Signaling), and anti-GFP (N-terminal, 1:4000, Catalog No. G1544, Sigma). Secondary antibodies used were: Goat anti-Mouse (1:2,500, Catalog No. 31160, Pierce), and Goat anti-Rabbit (1:2,500, Catalog No. 31460, Pierce). Cells were lysed in RIPA buffer (Sigma) on ice after washed in PBS twice, centrifuge at 160,000×g for 10 min at 4° C. […]"}, "[5]": {"test_system": "MDM2", "assay": "Western blot of MDM2 cleavage and phosphorylation in SCC cells", "assay_type": "cell-based, human", "conditions": "SCC cells pre-treated, upon CDDP treatment", "description": "as §2, with “C. Protein in supernatant was qualified using BCA™ protein assay kit (Thermo Scitific) and denatured in SDS loading buffer in boiling water, run 10% SDS-PAGE gel and transferred to nitrocellulose membrane (Thermo Scitific).” for “C.”\nNext, we wanted to explore potential mechanism of piR-L-138-mediated apoptosis inhibition in CDDP treated lung SCC cells. We first analyzed cleaved PARP, a protein marker indicative of apoptosis, and found it was increased in the SCC cells pre-treated with Ant-138 compared with Scr pre-treated cells (FIG. 15d). As both of the SCC cell lines harbor p53 mutations, we analyzed mouse double minute 2 homolog (MDM2) which has been implicated in apoptosis including p53-independent pathway (Bohlman S, Manfredi J J. p53-independent effects of Mdm2. Subcell Biochem. 85,235-46 (2014); Bouska A, Eischen C M. Mdm2 affects genome stability independent of p53. Cancer Res. 69, 1697-701 (2009); Zhang, Z., Li, M., Wang, H., Agrawal, S., and Zhang, R. Antisense therapy targeting MDM2 oncogene in prostate cancer: Effects on proliferation, apoptosis, multiple gene expression, and chemotherapy. Proc. Natl. Acad. Sci. 100, 11636-11641 (2003); Zhang Z, Wang H, Li M, Agrawal S, Chen X, Zhang R. MDM2 Is a Negative Regulator of p21WAF1/CIP1, Independent of p53. […]"}, "[6]": {"test_system": "H157 tumor xenograft", "assay": "H157 tumor xenograft model, intra-tumor injection of Ant-138 with CDDP", "assay_type": "in vivo, mice", "description": "To further validate the interaction between piR-L-138 and MDM2 at the individual cell level, we performed fluorescence in situ hybridization (FISH) assay using a digoxin (DIG)-labelled RNA probe complimentary to piR-L-138 and an anti-MDM2 antibody. We first tested the probes in HBE4 cells which express high levels of piR-L-138 to ensure the sensitivity and specificity of the piR-L-138 probe and MDM2 antibody (FIG. 16c). […] This is consistent with the observed up-regulation of piR-L-138 in SCC cells upon CDDP treatment and the interaction between piR-L-138 and MDM2. Next, we used H157 tumor xenograft model to determine if targeting piR-L-138 can enhance CDDP-mediated tumor cell apoptosis in SCC in vivo. In this proof of principle experiment, we used intra-tumor injection of Ant-138 (SEQ ID NO:556) which was formulated with MaxSuppr in vivo RNALancerll as described previously (Wiggins J F, et al. Development of a Lung Cancer Therapeutic Based on the Tumor Suppressor MicroRNA-34. Cancer Res. 70, 5923-30(2010)) due to the requirement of very large quantity of formulated reagents needed for systemic delivery. […] Since we were using local injection with sub-optimal dose, such modest anti-tumor activity was expected. We were focusing on determining if Ant-138 increased apoptosis at the sites of injection by analyzing tumor tissue sections for cleaved caspase 3 as an indicator of apoptosis and Ant-138."}, "[7]": {"test_system": "LAMC2", "assay": "LAMC2 expression by real time RT-PCR in HBE4 cells", "assay_type": "cell-based, human", "description": "FIG. 11. Expression of piR-L-163 in NSCLC and HBE cell lines measured by real time RT-PCR. (a) piR-L-163 expression levels in individual cell lines. (b) piR-L-163 express ion levels in HBE, ADC and SCC as groups. All the values are averages of four independent replicates, error bars represent mean s.d., and * indicates p<0.01 by Student's t-test. (c) LAMC2 express ion levels in HBE4 cells measured by real time RT-PCR in the conditions as labeled. Values are averages of three independent replicates, error bars represent mean s.d., and ** indicates p<0.05 by Student's t-test.\nWe then wanted to determine whether piR-L-163 (SEQ ID NO:282) plays a functional role in human bronchial epithelial cells. We treated HBE4 cells as well as primary normal human bronchial epithelial (NHBE) cells with piR-L-163 complementary DNA oligonucleotides (Ant-163) (SEQ ID NO:496) or RNA oligonucleotides (Ant-163R) (SEQ ID NO:497) in the experiment. […] Cell cycle distributions were measured every 2 hrs."}, "[8]": {"test_system": "lung SCC cell lines", "assay": "MTT cell viability after DNA oligo blocking 5 sprRNAs", "assay_type": "cell-based, human", "conditions": "twenty-four hours after treatment, 4 lung SCC cell lines", "description": "(§3) To test the potential impact of the candidate sprRNAs identified by phosphor-protein binding in the phosphorylation status of the proteins, we selected a panel of 5 sprRNAs with sizes ranging from 25-50 nt but sharing a common 25 nt sequence and used DNA oligo complementary to the common sequence (5′-[…]-3′) (SEQ ID NO:489) to block these sprRNAs."}, "[9]": {"test_system": "phosphor-proteins", "assay": "Western blots of phosphorylated proteins (p-Tyrosine, p-Theronin/Serine)", "assay_type": "cell-based, human", "conditions": "lung SCC cells treated with the DNA oligo", "description": "as §3"}}, "data": [{"substance": "Ant-138: DNA sequence that is antisense to piR-L-138, SEQ ID NO:556 (antisense AGGTCTCAGAGTAATTCTAGAGCTAAAGT; listed as DNA, chemistry not given here)", "values": [{"measurement": "cell killing (MTT)", "setting": "[1]", "result": "significantly increased cell killing"}, {"measurement": "proportion of the sub-G1 phase", "setting": "[2]", "result": "substantially increased proportion of the sub-G1 phase"}, {"measurement": "sensitivity to CDDP-induced apoptosis (annexin V)", "setting": "[3]", "result": "more sensitive to CDDP-induced apoptosis"}, {"measurement": "cleaved PARP", "setting": "[4]", "result": "increased"}, {"measurement": "MDM2 cleavage", "setting": "[5]", "result": "substantially reduced MDM2 cleavage"}, {"measurement": "serine-166 phosphorylation in the cleaved MDM2", "setting": "[5]", "result": "increase of serine-166 phosphorylation in the cleaved MDM2"}, {"measurement": "caspase 3 positive tumor cells by Ant-138 level (immunofluorescence)", "setting": "[6]; tumors treated with CDDP and Ant-138", "result": "significantly concentrated caspase 3 positive tumor cells in areas with high levels of Ant-138"}, {"measurement": "tumor size", "setting": "[6]; with CDDP, intra-tumor injection, vs untreated and CDDP plus Scr", "result": "smaller but the difference was only border line statistically"}, {"measurement": "expression of cleaved caspase 3 in tumors", "setting": "[6]; with CDDP, vs CDDP and Scr control", "result": "higher expression of cleaved caspase 3"}]}, {"substance": "Ant-163R: piR-L-163 complementary RNA oligonucleotides, SEQ ID NO:497 (antisense GGUCAGAGAAUCAAAGUAACAUCAUGAUAU; listed as RNA, chemistry not given here)", "values": [{"measurement": "expression levels of LAMC2", "setting": "[7]", "result": "reduced expression levels of LAMC2"}]}, {"substance": "DNA oligo complementary to the common sequence: DNA sequence antisense to SEQ ID NO:489 (AntiC, SEQ ID NO:558), blocks 5 sprRNAs sharing a common 25 nt sequence (antisense CGAACCCGGGCCGCGGCGGTGAGA; DNA, backbone and methylation of C not given here)", "values": [{"measurement": "cell viability (MTT)", "setting": "[8]", "result": "significant growth inhibition"}, {"measurement": "levels of phosphorylated proteins", "setting": "[9]", "result": "changes of levels in certain phosphor-proteins"}]}]}
